Here are results for 2 compounds from ChEMBL document CHEMBL1201862, “PubChem BioAssay data set” (2004).

The source made the active and inactive calls.

The target of one experiment is Melanocortin receptor 4 (Homo sapiens, UniProt P32245). Type of experiment: functional, cell-based.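 Note: Cell-based assay with luminescence read-out, confirmatory dose-response testing for agonist activity of biased ligands at MC4R; human U2OS cells with tagged receptor and beta-arrestin; potency of agonists that increase receptor coupling to beta-arrestin.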
Experiment [1] concerns the target T1, DNA repair protein RAD52 homolog (Homo sapiens, UniProt P43351).
T1 sequence (P43351 whole entry): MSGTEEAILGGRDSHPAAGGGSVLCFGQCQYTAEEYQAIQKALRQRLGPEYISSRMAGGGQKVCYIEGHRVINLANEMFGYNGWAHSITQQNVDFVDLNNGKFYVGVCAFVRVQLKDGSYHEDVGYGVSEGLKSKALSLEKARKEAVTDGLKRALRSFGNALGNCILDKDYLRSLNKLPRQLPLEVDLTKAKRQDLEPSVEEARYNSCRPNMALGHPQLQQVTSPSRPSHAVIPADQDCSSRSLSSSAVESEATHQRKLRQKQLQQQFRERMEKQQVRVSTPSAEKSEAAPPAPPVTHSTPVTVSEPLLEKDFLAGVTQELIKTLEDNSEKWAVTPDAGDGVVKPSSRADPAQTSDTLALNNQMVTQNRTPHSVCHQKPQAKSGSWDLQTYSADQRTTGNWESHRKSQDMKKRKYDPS
Type of experiment: functional, biochemical.

The test system of experiment [2] is BJ. Briefly: BJ-TERT fibroblast viability loss – cell-based, RAS-independent, luminescence, dose response (AID 1933). The settings on record: Homo sapiens. Type of experiment: functional.
Another experiment addresses CAAX prenyl protease 1 (Saccharomyces cerevisiae S288c, UniProt P47154). Briefly: yeast CAAX protease Ste24 inhibition – biochemical, S. cerevisiae, plate reader, cherry-pick, dose response (AID 488815).
Experiment [3] is described as follows: NIH-3T3 fibroblast cytotoxicity, dose response, cytotoxicity control, cell-based, fluorescence, Alamar Blue, secondary assay (AID 2327).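 Note: NIH-3T3 mouse fibroblasts cultured with fluconazole at 8 µg/mL.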 The class given is functional. For orientation: The colour change of resazurin is a common sign of viable cells or microbes.
Experiment [4] deals with HEK293. Briefly: cells. Type of experiment: functional, cell-based. The settings on record: Homo sapiens.
The subject of experiment [5] is HEK293. Briefly: cells. The class given is functional, cell-based. The settings on record: Homo sapiens. The source holds these as a separate data set.
Experiment [6] concerns the target Nucleotide-binding oligomerization domain-containing protein 2 (Homo sapiens, UniProt Q9HC29). Briefly: inhibition of NOD2-driven NF-kB reporter – cell-based, luminescence, uHTS, HEK293 (AID 1566). Type of experiment: functional.
A short description of experiment [7]: DRD fibroblast viability loss – cell-based, non-viral oncogenic, luminescence, dose response (AID 1934). The class given is functional. The settings on record: Homo sapiens.
The nature of experiment [8]: HEK-293T viability loss after treatment – luminescence, T-cell screen hits, cytotoxicity control for TCR NF-kB inhibitor project, dose response (AID 489026).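 Note: cells exposed to compound about 14 hours before the viability readout.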 The class given is functional, cell-based.
For experiment [9], the system named is BJ. As to the kind of experiment: cells. Type of experiment: functional, cell-based. The settings on record: Homo sapiens.
The target in experiment [10] is T2, Apoptotic protease-activating factor 1 (Homo sapiens, UniProt O14727).
T2 sequence (O14727 whole entry): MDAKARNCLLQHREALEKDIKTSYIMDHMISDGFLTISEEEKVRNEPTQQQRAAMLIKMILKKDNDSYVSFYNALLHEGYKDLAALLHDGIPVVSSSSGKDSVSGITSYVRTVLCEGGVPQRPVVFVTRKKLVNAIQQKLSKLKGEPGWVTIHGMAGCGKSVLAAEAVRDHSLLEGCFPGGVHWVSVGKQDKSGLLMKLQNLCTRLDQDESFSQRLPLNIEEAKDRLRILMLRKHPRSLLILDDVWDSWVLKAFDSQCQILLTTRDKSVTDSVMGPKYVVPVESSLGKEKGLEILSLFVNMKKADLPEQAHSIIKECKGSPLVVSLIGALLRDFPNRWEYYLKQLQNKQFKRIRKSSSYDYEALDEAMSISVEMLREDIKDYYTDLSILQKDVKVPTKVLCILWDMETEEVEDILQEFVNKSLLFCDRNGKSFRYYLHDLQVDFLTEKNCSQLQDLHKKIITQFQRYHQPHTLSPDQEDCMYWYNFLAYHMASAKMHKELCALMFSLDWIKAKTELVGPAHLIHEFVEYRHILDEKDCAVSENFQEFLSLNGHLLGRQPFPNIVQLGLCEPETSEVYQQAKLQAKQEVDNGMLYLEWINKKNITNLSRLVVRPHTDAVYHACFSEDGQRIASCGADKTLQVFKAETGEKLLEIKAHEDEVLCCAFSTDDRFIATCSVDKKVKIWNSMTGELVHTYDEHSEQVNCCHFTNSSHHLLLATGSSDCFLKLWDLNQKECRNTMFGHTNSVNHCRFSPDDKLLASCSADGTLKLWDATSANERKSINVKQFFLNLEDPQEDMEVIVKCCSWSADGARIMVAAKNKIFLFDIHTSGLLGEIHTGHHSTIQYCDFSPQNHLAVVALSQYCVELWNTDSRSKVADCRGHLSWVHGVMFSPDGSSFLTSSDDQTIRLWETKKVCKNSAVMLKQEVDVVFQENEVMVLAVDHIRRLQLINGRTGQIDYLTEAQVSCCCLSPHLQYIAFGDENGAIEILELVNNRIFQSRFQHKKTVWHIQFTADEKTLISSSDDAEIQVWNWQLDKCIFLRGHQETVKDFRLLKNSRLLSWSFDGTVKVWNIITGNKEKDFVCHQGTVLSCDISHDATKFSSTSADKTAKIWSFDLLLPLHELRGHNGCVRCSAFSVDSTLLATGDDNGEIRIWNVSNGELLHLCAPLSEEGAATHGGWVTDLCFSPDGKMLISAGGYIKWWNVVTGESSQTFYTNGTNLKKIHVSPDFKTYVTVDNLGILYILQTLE
Type of experiment: functional.

The target of experiment [11] is T3, Ubiquitin-conjugating enzyme E2 N (Homo sapiens, UniProt P61088).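 Note: Dose-response confirmation in a TR-FRET assay detecting UBC13-driven polyubiquitin chain formation, inhibition measured.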
T3 sequence (P61088 whole entry): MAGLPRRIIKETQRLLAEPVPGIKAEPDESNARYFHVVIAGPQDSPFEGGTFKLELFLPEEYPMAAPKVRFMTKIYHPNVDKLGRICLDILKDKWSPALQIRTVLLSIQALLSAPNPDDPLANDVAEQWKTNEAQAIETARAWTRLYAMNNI
Type of experiment: functional.

In experiment [12] the test system is BJ. Briefly: BJ-TERT-LT-ST fibroblast viability loss – cell-based, RAS-independent, luminescence, dose response (AID 1935).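 Note: BJ fibroblasts immortalized with TERT plus LT and ST oncogenes.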 The conditions noted are these: Homo sapiens. The class given is functional.
Experiment [13] is described as follows: fluconazole-exposed Candida albicans growth modulators – fluorescence, retest, confirmation (AID 2467). Type of experiment: functional, cell-based.
In experiment [14] the test system is BJ. As to the kind of experiment: growth inhibition of engineered Ras-driven BJ cells – cell-based, alamar blue fluorescence, cherrypicked samples, dose response (AID 2631).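 Note: confirmatory dose-response assay in RAS-dependent BJ fibroblasts engineered with TERT, LT and ST, with cytotoxicity read by fluorescence.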 The class given is functional. The settings on record: Homo sapiens.
The target in experiment [15] is Heat shock protein HSP 90-alpha (Homo sapiens, UniProt P07900). The class given is functional, organism-based.
The next experiment deals with T4, CAAX prenyl protease 2 (Saccharomyces cerevisiae S288c, UniProt Q03530).
T4 sequence (Q03530 whole entry): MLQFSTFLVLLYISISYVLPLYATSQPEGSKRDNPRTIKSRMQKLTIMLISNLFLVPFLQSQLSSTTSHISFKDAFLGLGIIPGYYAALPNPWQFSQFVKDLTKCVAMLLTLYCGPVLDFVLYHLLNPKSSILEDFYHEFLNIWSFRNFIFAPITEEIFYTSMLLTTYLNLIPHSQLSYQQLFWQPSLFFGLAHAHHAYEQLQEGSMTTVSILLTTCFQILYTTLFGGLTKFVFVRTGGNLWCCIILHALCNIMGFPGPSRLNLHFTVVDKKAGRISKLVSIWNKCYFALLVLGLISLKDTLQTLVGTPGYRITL
Type of experiment: biochemical.

Experiment [16] relates to HEK293. Briefly: NOD2 signaling inhibitors in MDP-stimulated cells, cell-based, uHTS, luminescence (AID 2001). Type of experiment: functional. The conditions noted are these: Homo sapiens.
Experiment [17] relates to HEK293. As to the kind of experiment: inhibition of NOD1-driven NF-kB reporter – cell-based, luminescence, uHTS, primary screen (AID 1578). Type of experiment: functional. The settings on record: Homo sapiens.
For experiment [18], the system named is HEK293. As to the kind of experiment: cells. The class given is functional, cell-based. The settings on record: Homo sapiens. This is another data set of the same source.
The test system of the next experiment is INS1. As to the kind of experiment: INS-1E survival protection against cytokine death – cell-based, luminescence, retest, dose response (AID 449756).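 Note: cell death triggered by IL-1 beta plus TNF-alpha plus IFN-gamma mixture; protective hits raise ATP signal compared with cytokine alone wells.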 The class given is functional. The settings on record: Rattus norvegicus.
Experiment [19] is described as follows: non-specific 3'UTR reporter inhibition in Clone20-Shn3RL – cell-based, Renilla luciferase, cherry-picked, counter-screen for Shn3 inhibitor project, dose response (AID 624133). Type of experiment: functional.
The nature of experiment [20]: decrease of insulin promoter-GFP reporter – imaging, high-content screening, mouse beta cells (AID 1628). Type of experiment: functional. The conditions noted are these: MIN6.
The target in a further experiment is Galanin receptor type 2 (Homo sapiens, UniProt O43603). As to the kind of experiment: Dose Response cell-based high-throughput screening assay to identify antagonists of galanin receptor 2 (GALR2). [Related pubchem assays: 828, 866 ]. The class given is functional.
Experiment [21] is described as follows: MIN6 cell viability loss – mouse insulinoma, cytotoxicity control, dose response (AID 2122).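 Note: confirmatory high-throughput counterscreen run to flag cytotoxic compounds.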 Type of experiment: functional.
Experiment [22] can be described thus: reduction of Shn3 3'UTR-driven luciferase in osteoblasts – cell-based, Clone20 osteoblasts, firefly luciferase, cherry-picked, dose response (AID 624132).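 Note: firefly luciferase luminescence from reporter carrying the Shn3 3'UTR in osteoblasts.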 Type of experiment: functional.

Nucleotide-binding oligomerization domain-containing protein 2, sequence (Q9HC29 whole entry, the tested form may be a part): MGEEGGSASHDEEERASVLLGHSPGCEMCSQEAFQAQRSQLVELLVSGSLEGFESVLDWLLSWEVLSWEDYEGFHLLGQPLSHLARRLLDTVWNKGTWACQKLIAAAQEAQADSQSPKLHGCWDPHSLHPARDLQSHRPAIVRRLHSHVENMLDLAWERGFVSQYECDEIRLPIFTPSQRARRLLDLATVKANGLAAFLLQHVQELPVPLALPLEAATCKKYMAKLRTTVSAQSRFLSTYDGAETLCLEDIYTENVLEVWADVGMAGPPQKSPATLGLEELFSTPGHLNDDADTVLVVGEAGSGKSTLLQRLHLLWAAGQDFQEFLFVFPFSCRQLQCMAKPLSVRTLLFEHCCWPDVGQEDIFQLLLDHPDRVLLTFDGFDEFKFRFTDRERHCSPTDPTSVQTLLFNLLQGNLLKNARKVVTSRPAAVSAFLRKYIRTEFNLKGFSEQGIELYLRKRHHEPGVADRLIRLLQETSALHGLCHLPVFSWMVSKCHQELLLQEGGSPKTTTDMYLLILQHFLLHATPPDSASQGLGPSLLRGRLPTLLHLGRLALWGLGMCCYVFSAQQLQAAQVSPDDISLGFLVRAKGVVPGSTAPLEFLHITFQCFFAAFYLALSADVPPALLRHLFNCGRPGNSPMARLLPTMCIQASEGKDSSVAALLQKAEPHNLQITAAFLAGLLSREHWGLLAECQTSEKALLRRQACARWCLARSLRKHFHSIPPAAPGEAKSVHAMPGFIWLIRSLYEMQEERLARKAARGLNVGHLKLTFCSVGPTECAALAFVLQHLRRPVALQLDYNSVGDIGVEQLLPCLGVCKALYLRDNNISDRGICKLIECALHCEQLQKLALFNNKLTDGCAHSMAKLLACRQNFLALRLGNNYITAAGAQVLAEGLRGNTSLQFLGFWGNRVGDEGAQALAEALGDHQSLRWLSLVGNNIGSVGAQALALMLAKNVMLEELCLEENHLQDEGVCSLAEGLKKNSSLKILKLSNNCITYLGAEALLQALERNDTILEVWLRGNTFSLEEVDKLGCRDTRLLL
Galanin receptor type 2, sequence (O43603 whole entry): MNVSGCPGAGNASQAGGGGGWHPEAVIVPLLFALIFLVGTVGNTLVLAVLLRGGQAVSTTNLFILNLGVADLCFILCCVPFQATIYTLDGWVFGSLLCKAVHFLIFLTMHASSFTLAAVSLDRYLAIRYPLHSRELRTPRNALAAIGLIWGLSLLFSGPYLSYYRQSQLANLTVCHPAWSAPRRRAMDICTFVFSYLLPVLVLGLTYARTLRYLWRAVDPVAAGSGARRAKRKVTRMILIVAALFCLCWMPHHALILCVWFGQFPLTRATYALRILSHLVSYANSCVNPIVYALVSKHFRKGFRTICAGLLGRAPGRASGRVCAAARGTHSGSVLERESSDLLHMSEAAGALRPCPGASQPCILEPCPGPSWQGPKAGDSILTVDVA
Melanocortin receptor 4, sequence (P32245 whole entry): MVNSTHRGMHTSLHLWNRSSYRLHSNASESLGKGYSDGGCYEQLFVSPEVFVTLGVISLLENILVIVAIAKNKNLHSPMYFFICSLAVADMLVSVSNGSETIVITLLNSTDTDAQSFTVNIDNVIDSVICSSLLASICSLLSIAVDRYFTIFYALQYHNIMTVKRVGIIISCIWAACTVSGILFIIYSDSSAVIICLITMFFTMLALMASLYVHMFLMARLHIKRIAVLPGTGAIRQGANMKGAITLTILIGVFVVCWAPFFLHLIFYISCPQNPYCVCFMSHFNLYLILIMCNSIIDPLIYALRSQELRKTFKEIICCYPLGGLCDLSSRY
CAAX prenyl protease 1, sequence (P47154 whole entry): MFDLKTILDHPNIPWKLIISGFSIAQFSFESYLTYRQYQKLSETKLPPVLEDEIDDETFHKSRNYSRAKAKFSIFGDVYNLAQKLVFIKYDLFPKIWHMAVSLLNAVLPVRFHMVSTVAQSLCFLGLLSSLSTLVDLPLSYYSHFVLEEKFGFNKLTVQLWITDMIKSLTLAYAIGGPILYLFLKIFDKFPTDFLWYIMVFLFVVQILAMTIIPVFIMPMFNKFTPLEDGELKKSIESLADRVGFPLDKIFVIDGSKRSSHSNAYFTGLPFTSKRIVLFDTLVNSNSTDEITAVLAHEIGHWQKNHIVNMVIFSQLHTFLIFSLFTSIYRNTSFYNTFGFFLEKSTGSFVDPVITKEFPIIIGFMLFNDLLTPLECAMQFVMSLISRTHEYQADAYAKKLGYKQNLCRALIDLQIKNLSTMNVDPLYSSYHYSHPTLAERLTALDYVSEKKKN

In the case of `CCC(C)(C)c1ccc(OCCCC[n+]2cccc(C)c2C)c(C(C)(C)CC)c1`, the EC50 (in general, the concentration that produces a half-maximal response) on Melanocortin receptor 4 was > 3.3 µM (active); in the experiment with BJ [2], 3.96 µM (inconclusive); in experiment [3] it was > 160 µM (inactive); in experiment [6], 8.15 µM (active); in [7] it was 5.62 µM (active); with BJ [9] it was 4.18 µM (inconclusive). The EC50 was 5.09 µM (active) in the experiment with BJ [12], 0.67 µM (active) in experiment [13], 2.48 µM (active) in the experiment with BJ [14] and 4.56 µM (active) in the experiment on HEK293 [17]. Also, the AC50 (in general, the midpoint of the concentration-response curve, whichever way the signal moves) is 31.2 µM (active) in experiment [1]; 9.82 µM (active) on CAAX prenyl protease 1; 5.38 µM (active) in [15]; 8.03 µM (active) on CAAX prenyl protease 2; 0.632 µM (active) in the experiment on INS1. Moreover, the IC50 – broadly, the midpoint of a concentration-inhibition curve – is 3.2 µM (active) in the experiment on HEK293 [4]; > 20 µM (inactive) in the experiment on HEK293 [5]; 56.1 µM (inactive) in experiment [8]; 20.2 µM (active) in experiment [10]; > 20 µM (inactive) in [11]; 2.48 µM (active) in the experiment with HEK293 [16]. For the same compound, in the experiment on HEK293 [18], the half-inhibitory concentration (IC50) is 6.37 µM (active).

On to `COC(=O)c1ccc(COC(=O)c2[nH]c(C)c(C(C)=O)c2C)o1`, for which the AC50 was 2.46 µM (active) in experiment [19] and 2.58 µM (active) in experiment [22]. Moreover, the values for the IC50 (in [20]; on Galanin receptor type 2; in experiment [21]) were 2.72 µM (active), > 42 µM (not active) and 3.23 µM (active), respectively.
